Assay results as given in patent US9938258B2 (Karyopharm Therapeutics Inc., priority 2012, dated 2018).
Where two headings read alike, the source gives them in different places.

Columns and labels:
[1] = system: Z138 cells; test: MTT cell proliferation assay, Z138; type: cell-based; conditions: Homo sapiens, Z-138, Z138 cells, read-out: MTT Assay IC50, Z138
Method in brief: (§1)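 Absorbance at 490 nm of solubilized formazan, produced during roughly 4 h MTT incubation, gave percent inhibition relative to negative control. Compounds spanned eight concentrations between 1 nM and 30 μM on cells plated overnight at 5,000-10,000 per well.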

[2] = system: MS751 cells; test: MTT cell proliferation assay, MS751; type: cell-based, human; conditions: Homo sapiens, MS751, MS751 cells, read-out: MTT Assay IC50, MS751
Method in brief: as §1

[3] = system: 3T3 cells; test: MTT cell proliferation assay, 3T3; type: cell-based, mouse; conditions: Mus musculus, NIH3T3, 3T3 cells, read-out: MTT Assay IC50, 3T3
Method in brief: as §1

[4] = approximately 64-72 hours incubation
[5] = eight concentrations 1 nM to 30 μM, incubation approximately 64-72 hours

Compound	IC50 [1, 4]	IC50 [2, 4]	IC50 [3, 4]	IC50 [1, 5]	IC50 [2, 5]	IC50 [3, 5]
CC(=O)c1ccc(-c2cc(Cl)c3c(c2)CC(CNC(=O)/C=C/Cc2cccnc2)O3)s1 (stereo not drawn) [Compound 222, (E)-N-((5-(5-acetylthiophen-2-yl)-7-chloro-2,3-dihydrobenzofuran-2-yl)methyl)-4-(pyridin-3-yl)but-2-enamide]	0.1 to 5 µM	0.1 to 5 µM	5 to 30 µM			
CC(=O)c1ccc(-c2cc(Cl)c3c(c2)CC(CNC(=O)/C=C/n2cncn2)O3)s1 (stereo not drawn) [Compound 229, (E)-N-((5-(5-acetylthiophen-2-yl)-7-chloro-2,3-dihydrobenzofuran-2-yl)methyl)-3-(1H-1,2,4-triazol-1-yl)acrylamide]	> 30 µM	> 30 µM	> 30 µM			
CN(C)C(=O)c1ccc(-c2cc(Cl)c3c(c2)CC(CNC(=O)/C=C/c2ccc(N)nc2)O3)cc1 (stereo not drawn) [Compound 233, (E)-4-(2-((3-(6-aminopyridin-3-yl)acrylamido)methyl)-7-chloro-2,3-dihydrobenzofuran-5-yl)-N,N-dimethylbenzamide]	< 0.1 µM	0.1 to 5 µM	5 to 30 µM			
Nc1ccc(/C=C/C(=O)NCC2Cc3cc(-c4ccc(C(=O)N5CCCCC5)cc4)cc(Cl)c3O2)cn1 (stereo not drawn) [Compound 234, (E)-3-(6-aminopyridin-3-yl)-N-((7-chloro-5-(4-(piperidine-1-carbonyl)phenyl)-2,3-dihydrobenzofuran-2-yl)methyl)acrylamide]	< 0.1 µM	< 0.1 µM	5 to 30 µM			
Cc1noc(C)c1-c1cc(Cl)c2c(c1)CC(CNC(=O)/C=C/c1cccnn1)O2 (stereo not drawn) [Compound 235, (E)-N-((7-chloro-5-(3,5-dimethylisoxazol-4-yl)-2,3-dihydrobenzofuran-2-yl)methyl)-3-(pyridazin-3-yl)acrylamide]	0.1 to 5 µM	0.1 to 5 µM	5 to 30 µM			
O=C(/C=C/c1cccnn1)NCC1Cc2cc(-c3ccc(C(=O)N4CCOCC4)cc3)cc(Cl)c2O1 (stereo not drawn) [Compound 236, (E)-N-((7-chloro-5-(4-(morpholine-4-carbonyl)phenyl)-2,3-dihydrobenzofuran-2-yl)methyl)-3-(pyridazin-3-yl)acrylamide]	0.1 to 5 µM	0.1 to 5 µM	0.1 to 5 µM			
CN1CCN(C(=O)c2ccc(-c3cc(Cl)c4c(c3)CC(CNC(=O)/C=C/c3ccc(N)nc3)O4)cc2)CC1 (stereo not drawn) [Compound 237, (E)-3-(6-aminopyridin-3-yl)-N-((7-chloro-5-(4-(4-methylpiperazine-1-carbonyl)phenyl)-2,3-dihydrobenzofuran-2-yl)methyl)acrylamide]	< 0.1 µM	< 0.1 µM	0.1 to 5 µM			
Cc1cc(-c2cc(Cl)c3c(c2)CC(CNC(=O)/C=C/c2ccc(N)nc2)O3)ccc1C(=O)N1CCOCC1 (stereo not drawn) [Compound 238, (E)-3-(6-aminopyridin-3-yl)-N-((7-chloro-5-(3-methyl-4-(morpholine-4-carbonyl)phenyl)-2,3-dihydrobenzofuran-2-yl)methyl)acrylamide]	< 0.1 µM	< 0.1 µM	0.1 to 5 µM			
Nc1ccc(/C=C/C(=O)NCC2Cc3cc(-c4cccc(C(=O)N5CCOCC5)c4)cc(Cl)c3O2)cn1 (stereo not drawn) [Compound 239, (E)-3-(6-aminopyridin-3-yl)-N-((7-chloro-5-(3-(morpholine-4-carbonyl)phenyl)-2,3-dihydrobenzofuran-2-yl)methyl)acrylamide]	< 0.1 µM	< 0.1 µM	0.1 to 5 µM			
C=C(Cc1cccnc1)C(=O)NCC1Cc2cc(-c3ccc(C(C)=O)s3)cc(Cl)c2O1 (stereo not drawn) [Compound 240, N-((5-(5-acetylthiophen-2-yl)-7-chloro-2,3-dihydrobenzofuran-2-yl)methyl)-2-(pyridin-3-ylmethyl)acrylamide]	5 to 30 µM	5 to 30 µM	> 30 µM			
Nc1ccc(/C=C/C(=O)NCC2Cc3cc(-c4ccc(C(=O)N5CCOCC5)nc4)cc(Cl)c3O2)cn1 (stereo not drawn) [Compound 248, (E)-3-(6-aminopyridin-3-yl)-N-((7-chloro-5-(6-(morpholine-4-carbonyl)pyridin-3-yl)-2,3-dihydrobenzofuran-2-yl)methyl)acrylamide]	< 0.1 µM	0.1 to 5 µM	> 30 µM			
Nc1ccc(/C=C/C(=O)NCC2Cc3c(-c4ccc(C(=O)N5CCOCC5)cc4)ccc(Cl)c3O2)cn1 (stereo not drawn) [Compound 249, (E)-3-(6-aminopyridin-3-yl)-N-((7-chloro-4-(4-(morpholine-4-carbonyl)phenyl)-2,3-dihydrobenzofuran-2-yl)methyl)acrylamide]	< 0.1 µM	< 0.1 µM	0.1 to 5 µM			
CC(=O)c1ccc(-c2cc(Cl)c3c(c2)CC(CNC(=O)C#Cc2cccnc2)O3)s1 (stereo not drawn) [Compound 251, N-((5-(5-acetylthiophen-2-yl)-7-chloro-2,3-dihydrobenzofuran-2-yl)methyl)-3-(pyridin-3-yl)propiolamide]				0.1 to 5 µM	0.1 to 5 µM	5 to 30 µM
CC(=O)c1ccc(-c2cc(Cl)c3c(c2)CC(CNC(=O)/C=C/c2cncnc2)O3)s1 (stereo not drawn) [Compound 254, (E)-N-((5-(5-acetylthiophen-2-yl)-7-chloro-2,3-dihydrobenzofuran-2-yl)methyl)-3-(pyrimidin-5-yl)acrylamide]				> 30 µM	> 30 µM	> 30 µM
CC(=O)c1ccc(-c2cc(Cl)c3c(c2)CC(CNC(=O)/C=C/c2cnccn2)O3)s1 (stereo not drawn) [Compound 258, (E)-N-((5-(5-acetylthiophen-2-yl)-7-chloro-2,3-dihydrobenzofuran-2-yl)methyl)-3-(pyrazin-2-yl)acrylamide]				> 30 µM	> 30 µM	> 30 µM
CC(=O)c1ccc(-c2cc(Cl)c3c(c2)CC(CNC(=O)/C(C)=C/c2cccnc2)O3)s1 (stereo not drawn) [Compound 262, (E)-N-((5-(5-acetylthiophen-2-yl)-7-chloro-2,3-dihydrobenzofuran-2-yl)methyl)-2-methyl-3-(pyridin-3-yl) acrylamide]				5 to 30 µM	5 to 30 µM	> 30 µM
CC(=O)c1ccc(-c2cc(Cl)c3c(c2)CC(CNC(=O)/C=C/c2cscn2)O3)s1 (stereo not drawn) [Compound 272, (E)-N-((5-(5-Acetylthiophen-2-yl)-7-chloro-2,3-dihydrobenzofuran-2-yl)methyl)-3-(thiazol-4-yl)acrylamide]				> 30 µM	> 30 µM	5 to 30 µM
CC(=O)c1ccc(-c2cc(Cl)c3c(c2)CC(CNC(=O)/C=C/c2ccnnc2)O3)s1 (stereo not drawn) [Compound 273, (E)-N-((5-(5-acetylthiophen-2-yl)-7-chloro-2,3-dihydrobenzofuran-2-yl)methyl)-3-(pyridazin-4-yl)acrylamide]				5 to 30 µM	> 30 µM	> 30 µM
CCn1nccc1/C=C/C(=O)NCC1Cc2cc(-c3ccc(C(C)=O)s3)cc(Cl)c2O1 (stereo not drawn) [Compound 274, (E)-N-((5-(5-acetylthiophen-2-yl)-7-chloro-2,3-dihydrobenzofuran-2-yl)methyl)-3-(1-ethyl-1H-pyrazol-5-yl)acrylamide]				5 to 30 µM	5 to 30 µM	> 30 µM
Cc1cc(Cl)c2c(c1)CC(CNC(=O)/C=C/c1cccnc1)O2 (stereo not drawn) [Compound 275, (E)-N-((7-chloro-5-methyl-2,3-dihydrobenzofuran-2-yl)methyl)-3-(pyridin-3-yl)acrylamide]				5 to 30 µM	5 to 30 µM	> 30 µM
CC(=O)c1ccc(-c2cc(Cl)c3c(c2)CC(CNC(=O)/C=C/c2c(Cl)nc4sccn24)O3)s1 (stereo not drawn) [Compound 276, (E)-N-((5-(5-acetylthiophen-2-yl)-7-chloro-2,3-dihydrobenzofuran-2-yl)methyl)-3-(6-chloroimidazo[2,1-b]thiazol-5-yl)acrylamide]				> 30 µM	> 30 µM	> 30 µM
CC(=O)c1ccc(-c2cc(Cl)c3c(c2)CC(CNC(=O)/C=C/c2cc(C)on2)O3)s1 (stereo not drawn) [Compound 277, (E)-N-((5-(5-acetylthiophen-2-yl)-7-chloro-2,3-dihydrobenzofuran-2-yl)methyl)-3-(5-methylisoxazol-3-yl)acrylamide]				> 30 µM	0.1 to 5 µM	> 30 µM
CC(=O)c1ccc(-c2cc(Cl)c3c(c2)CC(CNC(=O)/C=C/c2ncc[nH]2)O3)s1 (stereo not drawn) [Compound 278, (E)-N-((5-(5-acetylthiophen-2-yl)-7-chloro-2,3-dihydrobenzofuran-2-yl)methyl)-3-(1H-imidazol-2-yl)acrylamide]				> 30 µM	> 30 µM	> 30 µM
CC(=O)c1ccc(-c2cc(Cl)c3c(c2)CC(CNC(=O)/C=C/c2cccnn2)O3)s1 (stereo not drawn) [Compound 279, (E)-N-((5-(5-acetylthiophen-2-yl)-7-chloro-2,3-dihydrobenzofuran-2-yl)methyl)-3-(pyridazin-3-yl)acrylamide]				0.1 to 5 µM	0.1 to 5 µM	0.1 to 5 µM
CC(=O)c1ccc(-c2cc(Cl)c3c(c2)CC(CNC(=O)/C=C/c2cncc(C)c2)O3)s1 (stereo not drawn) [Compound 280, (E)-N-((5-(5-acetylthiophen-2-yl)-7-chloro-2,3-dihydrobenzofuran-2-yl)methyl)-3-(5-methylpyridin-3-yl)acrylamide]	0.1 to 5 µM	0.1 to 5 µM	> 30 µM			
CC(=O)c1ccc(-c2cc(Cl)c3c(c2)CC(CNC(=O)/C=C/c2csnn2)O3)s1 (stereo not drawn) [Compound 281, (E)-N-((5-(5-acetylthiophen-2-yl)-7-chloro-2,3-dihydrobenzofuran-2-yl)methyl)-3-(1,2,3-thiadizol-5-yl)acrylamide]	> 30 µM	> 30 µM	> 30 µM			
